According to patent US7576093B2, “Method of treatment of bone-related disorders or conditions” (AstraZeneca AB, priority 2006, dated 2009):

What was measured:
GSK3β = biological target: T1, GSK3β (Mus musculus, UniProt Q9WV60); settings: glucocorticoid-treated osteoblasts in culture, GSK3β inhibited; cited from earlier work
T1 construct: host or cells: osteoblasts in culture (endogenous protein)

[1] = tested on: Parathyroid hormone (PTH); assay: Intact PTH plasma levels in rats after 7 days oral dosing (ELISA); assay type: in vivo, rat; settings: male Sprague Dawley rats, 30 μmol/kg/day orally for 7 days, 3 hours after last dose, vs vehicle
Description: (§1) In a separate rat study, the effect of the compound 3-amino-6-[4-(4-methylpiperazin-1-yl)sulfonylphenyl]-N-pyridin-3-ylpyrazine-2-carboxamide on osteocalcin levels, used as a marker for bone formation, was studied. Parathyroid hormone (PTH) and calcitonin levels were also analysed. The compound was formulated as a solution in water. Male Sprague Dawley rats were given 30 μmol/kg/day of the compound orally for 7 days and then compared to vehicle control rats. Blood samples were taken before the first drug administration at day 1, and 3 hours after the last dose at day 7. Osteocalcin plasma levels were measured using a commercial immunoassay (ELISA kit (catalogue # BT-490, Biomedical Technologies Inc. MA, USA)). Intact PTH levels were analyzed using a commercial ELISA kit (catalogue # 60-2700, Immutopics Inc. CA, USA). The calcitonin was measured in the following way, 200 μL plasma was precipitated with 1 mL acid ethanol, mixed vigorously and centrifuged for 15 min at 1500 g. The supernatant was decanted into a new tube and evaporated with a stream of nitrogen in a Turbo Vap. After reconstitution in assay buffer, calcitonin levels were analyzed using a commercial ELISA kit (catalogue # S-1197, Peninsula. Calif., USA).

calcitonin = assay: Calcitonin plasma levels in rats after 7 days oral dosing (ELISA); assay type: in vivo, rat; settings: male Sprague Dawley rats, 30 μmol/kg/day orally for 7 days, 3 hours after last dose, vs vehicle
Description: as §1

Han Wistar rats = assay: Four-week oral rat study, light microscopy of bone sections (bone formation); assay type: in vivo
Description: The compound 3-amino-6-[4-(4-methylpiperazin-1-yl)sulfonylphenyl]-N-pyridin-3-ylpyrazine-2-carboxamide was formulated as a solution in water. Male and female Han Wistar rats were dosed by oral gavage, at dosages of 10, 30 or 60 μmol/kg/day for four weeks and compared to vehicle controls. Complete necropsies were performed and the tissues preserved in 10% formalin. The femur, femorotibial joint, sternum and hind paws were decalcified, embedded in paraffin, sectioned at 5 μm thickness and stained with hematoxylin and eosin.

Sprague Dawley rats [2] = assay: Trabecular bone mineral density of femur metaphysis by peripheral quantitative computed tomography after 14 days oral dosing; assay type: in vivo, rat; settings: male Sprague Dawley rats, oral gavage 14 days, 3 μmol/kg twice daily or 30 μmol/kg once daily, every second or every fourth day; FIG. 5a-5c
Description: In a separate rat study, the effect of the compound 3-amino-6-[4-(4-methylpiperazin-1-yl)sulfonylphenyl]-N-pyridin-3-ylpyrazine-2-carboxamide on the bone mineral density (BMD) […]. The compound was formulated as a ultrapure solution in water (pH 3.5). The Male Sprague Dawley rats were dosed during 14 days by oral gavage. The study contained 4 dose groups with different dosing regimes and a vehicle control, namely 3 μmol/kg (twice daily) or 30 μmol/kg (once daily, once every second day or once every fourth day). Plasma samples were always taken 2 hrs after the oral dose was given in the morning. After 14 days, the rats were euthanized, and their right femurs were removed. The trabecular bone density of the femur metaphyses were measured utilizing peripheral quantitative computed Tomography method.

Sprague Dawley rats [3] = assay: Histopathology of bone in the 7-day rat study; assay type: in vivo; settings: male Sprague Dawley rats, 30 μmol/kg/day orally for 7 days
osteocalcin = assay: Osteocalcin plasma levels in rats after 7 days oral dosing (ELISA); assay type: in vivo, rat; settings: male Sprague Dawley rats, 30 μmol/kg/day orally for 7 days, 3 hours after last dose, vs vehicle
Description: as §1

[4] = rat, 60 μmol/kg for 4 weeks, vs vehicle-treated control

T1 sequence (Q9WV60 whole entry): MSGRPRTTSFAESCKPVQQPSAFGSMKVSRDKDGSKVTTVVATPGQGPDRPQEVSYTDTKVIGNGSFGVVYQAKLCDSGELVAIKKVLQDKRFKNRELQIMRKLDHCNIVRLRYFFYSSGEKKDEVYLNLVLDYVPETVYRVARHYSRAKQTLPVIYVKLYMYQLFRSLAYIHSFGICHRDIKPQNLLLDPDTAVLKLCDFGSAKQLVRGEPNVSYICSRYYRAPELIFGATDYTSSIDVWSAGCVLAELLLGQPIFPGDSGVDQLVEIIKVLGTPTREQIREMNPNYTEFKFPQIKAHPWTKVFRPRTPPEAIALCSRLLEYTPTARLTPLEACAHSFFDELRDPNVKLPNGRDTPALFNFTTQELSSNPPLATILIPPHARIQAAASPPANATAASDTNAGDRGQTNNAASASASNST

## [Cl-].[Li+] [lithium chloride]
GSK3β
  attenuated cell cycle and reduced c-Myc level in osteoblasts: returned to normal

## CN1CCN(S(=O)(=O)c2ccc(-c3cnc(N)c(C(=O)Nc4cccnc4)n3)cc2)CC1 [3-amino-6-[4-(4-methylpiperazin-1-yl)sulfonylphenyl]-N-pyridin-3-ylpyrazine-2-carboxamide]
[1]
  PTH plasma levels: significantly increased
calcitonin
  calcitonin plasma levels: significantly increased
Han Wistar rats; male and female Han Wistar rats, oral gavage 10, 30 or 60 μmol/kg/day for four weeks, all dose levels, vs vehicle
  bone formation (thickened trabeculae, thickened cortical bone, periosteal hyperostosis, increased number of osteoblasts) by light microscopy: increased bone formation
Han Wistar rats; [4]
  formation of osteoid in femur (diaphysis), FIG. 1b: marked increase in formation of osteoid
  formation of osteoid in femur (diaphysis), FIG. 1b (figure legend): marked increase in formation of osteoid
Sprague Dawley rats [2]
  bone mineral density (BMD) in the trabeculae of the right femur metaphysis: BMD increases
Sprague Dawley rats [3]
  bone formation, histopathologically: increased bone formation
osteocalcin
  Osteocalcin plasma levels: significantly increased

## Nc1ncc(-c2ccc(S(=O)(=O)N3CCNCC3)cc2)nc1C(=O)Nc1cccnc1 [3-amino-6-(4-piperazin-1-ylsulfonylphenyl)-N-pyridin-3-ylpyrazine-2-carboxamide]
Sprague Dawley rats [2]
  bone mineral density (BMD) in the trabeculae of the right femur metaphysis: BMD increases

## Nc1ncc(-c2ccc(S(N)(=O)=O)cc2)nc1C(=O)Nc1cccnc1 [3-amino-N-pyridin-3-yl-6-(4-sulfamoylphenyl)pyrazine-2-carboxamide]
Sprague Dawley rats [2]
  bone mineral density (BMD) in the trabeculae of the right femur metaphysis: BMD increases
